Results from ChEMBL document CHEMBL1201862, “PubChem BioAssay data set” (2004).
Active and inactive are the calls of the source. Rule as the data show it, for most assays here: actives have a measured IC50 and inactives only a lower limit.

Key:
[1] = molecular target: Protein Rev (Human immunodeficiency virus type 1 group M subtype B (isolate HXB2)(HIV-1), UniProt P04618); test: inhibitors of Rev binding to RRE RNA, dose response, biochemical, fluorescence polarization, HIV-1 (AID 434976); design: species or system Human immunodeficiency virus 1
[2] = molecular target: Female germline-specific tumor suppressor gld-1 (Caenorhabditis elegans, UniProt Q17339); test: inhibitors of GLD-1 binding to TGE RNA, dose response, biochemical, fluorescence polarization, C. elegans (AID 2802);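 also: fluorescence polarization of labeled TGE RNA bound by purified gld-1 protein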
[3] = molecular target: T1, Dual specificity protein phosphatase 3 (Homo sapiens, UniProt P51452); test: SAR VHR1 absorbance Assay for In Vitro dose response studies. [Related pubchem assays (depositor defined):AID1654, AID1661, AID1878, AID1992, AID2004]
[4] = molecular target: T1, Dual specificity protein phosphatase 3; test: SAR VHR1 Fluorescent Assay for In Vitro dose response studies. [Related pubchem assays (depositor defined):AID1654, AID1661, AID1878, AID1992, AID2004, AID2070, AID2085]; type: functional
[5] = molecular target: T2, Tyrosine-protein phosphatase non-receptor type 7 (Homo sapiens, UniProt P35236); test: redox-dependent HePTP inhibition, mechanism study, biochemical, fluorescence (AID 2068); type: functional
T2 sequence (P35236 whole entry): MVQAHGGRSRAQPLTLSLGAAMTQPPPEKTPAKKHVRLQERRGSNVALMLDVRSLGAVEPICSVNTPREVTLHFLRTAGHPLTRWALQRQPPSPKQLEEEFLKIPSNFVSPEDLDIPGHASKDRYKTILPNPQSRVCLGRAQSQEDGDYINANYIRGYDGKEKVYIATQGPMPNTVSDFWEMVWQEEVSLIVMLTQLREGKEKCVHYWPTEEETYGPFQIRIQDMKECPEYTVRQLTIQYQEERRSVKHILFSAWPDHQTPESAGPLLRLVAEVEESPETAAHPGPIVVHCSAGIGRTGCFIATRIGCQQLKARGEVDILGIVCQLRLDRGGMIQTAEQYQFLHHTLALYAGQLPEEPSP

[6] = molecular target: T3, Dual specificity protein phosphatase 6 (Rattus norvegicus, UniProt Q64346); type: functional;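 also: confirmatory in vitro dose-response testing of MKP-3 inhibition; recombinant His-tagged MKP-3 made in E. coli BL21 with OMFP substrate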
T3 sequence (Q64346 whole entry): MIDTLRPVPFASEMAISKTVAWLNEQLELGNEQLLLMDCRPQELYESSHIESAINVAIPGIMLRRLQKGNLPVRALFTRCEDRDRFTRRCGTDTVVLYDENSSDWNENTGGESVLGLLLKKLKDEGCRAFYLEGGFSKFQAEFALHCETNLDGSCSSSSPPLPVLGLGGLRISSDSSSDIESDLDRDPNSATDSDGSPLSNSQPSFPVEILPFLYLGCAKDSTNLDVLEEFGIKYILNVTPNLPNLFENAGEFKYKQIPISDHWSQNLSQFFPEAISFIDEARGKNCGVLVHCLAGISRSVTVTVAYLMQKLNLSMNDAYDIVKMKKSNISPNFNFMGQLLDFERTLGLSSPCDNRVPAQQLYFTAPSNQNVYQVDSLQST

[7] = molecular target: Mu-type opioid receptor (Homo sapiens, UniProt P35372); test: SAR Analysis of Antagonists of the MOR Receptor using an Image-Based Assay - Set 3. [Related pubchem assays (depositor defined):AID1777, AID1785, AID1786, AID1966, AID2133, AID2136, AID2284, AID2285, AID2420]; type: functional
[8] = molecular target: Delta-type opioid receptor (Homo sapiens, UniProt P41143); test: SAR Analysis of Antagonists of the DOR Receptor using an Image-Based Assay - Set 3. [Related pubchem assays (depositor defined):AID1777, AID1785]; type: functional;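 also: U2OS cells expressing DOR1 and beta-arrestin GFP stimulated with 100 nM SNC80; imaging of GFP-tagged beta-arrestin moving into spots after receptor activation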
[9] = molecular target: T4, Kappa-type opioid receptor (Homo sapiens, UniProt P41145); test: SAR analysis of small molecule antagonists of the kappa opioid receptor via a luminescent beta-arrestin assay - Set 3. [Related pubchem assays (depositor defined):AID1777, AID1778, AID1785, AID1786, AID1966, AID2133, AID2136, AID2285, AID2495]; type: functional
[10] = molecular target: T4, Kappa-type opioid receptor; test: SAR analysis of Antagonists of the Kappa Opioid Receptor (KOR) using an Image-Based Assay - Set 3. [Related pubchem assays (depositor defined):AID1777, AID1785]; type: functional
[11] = molecular target: Sphingosine 1-phosphate receptor 4 (Homo sapiens, UniProt O95977); test: S1P4 receptor agonists, human, late-stage follow-up, cell-based, fluorescence, synthesized compounds (AID 463107); type: functional
[12] = molecular target: T5, Tyrosine-protein phosphatase non-receptor type 22 (Homo sapiens, UniProt Q9Y2R2); test: SAR LYP1 Fluorescent Assay using pCAP substrate for In Vitro dose response studies - Set 2. [Related pubchem assays (depositor defined):AID1779, AID1784, AID2135, AID449727]; type: functional
T5 sequence (Q9Y2R2 whole entry): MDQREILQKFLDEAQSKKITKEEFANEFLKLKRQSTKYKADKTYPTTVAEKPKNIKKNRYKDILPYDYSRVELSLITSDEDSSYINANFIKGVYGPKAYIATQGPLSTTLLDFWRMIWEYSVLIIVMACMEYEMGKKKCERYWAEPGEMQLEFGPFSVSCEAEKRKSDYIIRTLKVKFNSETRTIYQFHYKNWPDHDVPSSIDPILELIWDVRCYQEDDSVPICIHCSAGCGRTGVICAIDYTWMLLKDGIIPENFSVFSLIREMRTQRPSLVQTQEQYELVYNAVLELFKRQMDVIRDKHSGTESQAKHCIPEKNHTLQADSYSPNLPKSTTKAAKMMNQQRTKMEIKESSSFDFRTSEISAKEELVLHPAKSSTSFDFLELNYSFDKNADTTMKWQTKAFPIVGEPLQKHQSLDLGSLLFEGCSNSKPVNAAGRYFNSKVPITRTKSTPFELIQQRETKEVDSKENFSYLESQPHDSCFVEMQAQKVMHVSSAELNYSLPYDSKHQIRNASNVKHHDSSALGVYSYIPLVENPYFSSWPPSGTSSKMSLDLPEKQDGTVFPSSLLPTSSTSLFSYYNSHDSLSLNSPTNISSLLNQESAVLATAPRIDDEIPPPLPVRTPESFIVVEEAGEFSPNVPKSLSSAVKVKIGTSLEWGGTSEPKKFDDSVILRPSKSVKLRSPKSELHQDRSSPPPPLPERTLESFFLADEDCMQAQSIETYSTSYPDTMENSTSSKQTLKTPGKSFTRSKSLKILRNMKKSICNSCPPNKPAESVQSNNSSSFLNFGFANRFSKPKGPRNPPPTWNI

[13] = molecular target: Tyrosine-protein phosphatase non-receptor type 12 (Homo sapiens, UniProt Q05209); test: SAR Selectivity Analysis of small molecule inhibitors of PEST using pCAP in a fluorescence assay. [Related pubchem assays (depositor defined):AID1779, AID1784, AID2135]; type: functional
[14] = molecular target: T5, Tyrosine-protein phosphatase non-receptor type 22; test: SAR LYP1 Fluorescent Assay using OMFP substrate for In Vitro dose response studies - Set 3. [Related pubchem assays (depositor defined):AID1779, AID1784, AID2140, AID2686]; type: functional
[15] = molecular target: T2, Tyrosine-protein phosphatase non-receptor type 7; test: HePTP (PTPN7) phosphatase inhibitor potency, SAR follow-up, biochemical, set 2 (AID 449736); type: functional
[16] = molecular target: T5, Tyrosine-protein phosphatase non-receptor type 22; test: LYP (PTPN22) phosphatase inhibitor potency, SAR follow-up, biochemical, pCAP fluorogenic substrate, fluorescence, set 3 (AID 449727); type: functional
[17] = molecular target: T5, Tyrosine-protein phosphatase non-receptor type 22; test: PubChem AID 2135
[18] = molecular target: T5, Tyrosine-protein phosphatase non-receptor type 22; test: PubChem AID 2140
[19] = molecular target: T5, Tyrosine-protein phosphatase non-receptor type 22; test: SAR LYP1 Fluorescent Assay using OMFP substrate for In Vitro dose response studies - Set 2. [Related pubchem assays (depositor defined):AID1779, AID1784, AID2140, AID449726, AID488869]; type: functional

T4 sequence (P41145 whole entry): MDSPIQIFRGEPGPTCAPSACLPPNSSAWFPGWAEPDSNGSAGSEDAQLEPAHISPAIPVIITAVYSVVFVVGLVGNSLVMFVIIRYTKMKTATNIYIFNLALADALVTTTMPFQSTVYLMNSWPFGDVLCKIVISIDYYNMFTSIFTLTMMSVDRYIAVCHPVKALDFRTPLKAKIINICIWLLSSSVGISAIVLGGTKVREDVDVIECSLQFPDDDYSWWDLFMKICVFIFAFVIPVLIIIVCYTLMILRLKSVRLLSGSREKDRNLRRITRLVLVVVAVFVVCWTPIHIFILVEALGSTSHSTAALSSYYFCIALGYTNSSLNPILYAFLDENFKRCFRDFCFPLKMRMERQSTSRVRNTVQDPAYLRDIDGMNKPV
T1 sequence (P51452 whole entry): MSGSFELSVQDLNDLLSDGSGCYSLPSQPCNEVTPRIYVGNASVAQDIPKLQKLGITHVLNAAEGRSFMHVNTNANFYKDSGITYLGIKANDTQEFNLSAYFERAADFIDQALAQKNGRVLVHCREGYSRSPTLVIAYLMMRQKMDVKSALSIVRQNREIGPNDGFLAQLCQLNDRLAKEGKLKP
Chain of Mu-type opioid receptor (P35372 whole entry): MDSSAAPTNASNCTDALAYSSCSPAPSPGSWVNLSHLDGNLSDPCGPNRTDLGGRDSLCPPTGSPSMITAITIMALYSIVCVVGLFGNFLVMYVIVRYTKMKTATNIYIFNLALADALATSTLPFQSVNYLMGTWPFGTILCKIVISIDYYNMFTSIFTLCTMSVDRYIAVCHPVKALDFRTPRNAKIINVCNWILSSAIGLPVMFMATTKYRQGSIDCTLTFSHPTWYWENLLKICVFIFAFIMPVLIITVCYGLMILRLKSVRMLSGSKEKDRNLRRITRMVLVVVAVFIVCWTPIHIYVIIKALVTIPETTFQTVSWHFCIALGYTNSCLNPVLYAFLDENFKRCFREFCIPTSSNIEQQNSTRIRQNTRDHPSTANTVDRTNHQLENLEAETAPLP
Chain of Delta-type opioid receptor (P41143 whole entry): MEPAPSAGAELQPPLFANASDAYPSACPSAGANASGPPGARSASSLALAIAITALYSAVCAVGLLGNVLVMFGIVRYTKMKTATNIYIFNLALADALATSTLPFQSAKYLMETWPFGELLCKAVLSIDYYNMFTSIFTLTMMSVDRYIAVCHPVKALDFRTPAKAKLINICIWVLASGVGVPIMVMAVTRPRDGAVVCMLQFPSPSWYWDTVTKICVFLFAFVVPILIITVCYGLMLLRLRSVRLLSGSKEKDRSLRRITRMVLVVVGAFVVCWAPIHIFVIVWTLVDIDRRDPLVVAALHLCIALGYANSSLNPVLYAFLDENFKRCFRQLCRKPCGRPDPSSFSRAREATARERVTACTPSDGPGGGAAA
Chain of Female germline-specific tumor suppressor gld-1 (Q17339 whole entry): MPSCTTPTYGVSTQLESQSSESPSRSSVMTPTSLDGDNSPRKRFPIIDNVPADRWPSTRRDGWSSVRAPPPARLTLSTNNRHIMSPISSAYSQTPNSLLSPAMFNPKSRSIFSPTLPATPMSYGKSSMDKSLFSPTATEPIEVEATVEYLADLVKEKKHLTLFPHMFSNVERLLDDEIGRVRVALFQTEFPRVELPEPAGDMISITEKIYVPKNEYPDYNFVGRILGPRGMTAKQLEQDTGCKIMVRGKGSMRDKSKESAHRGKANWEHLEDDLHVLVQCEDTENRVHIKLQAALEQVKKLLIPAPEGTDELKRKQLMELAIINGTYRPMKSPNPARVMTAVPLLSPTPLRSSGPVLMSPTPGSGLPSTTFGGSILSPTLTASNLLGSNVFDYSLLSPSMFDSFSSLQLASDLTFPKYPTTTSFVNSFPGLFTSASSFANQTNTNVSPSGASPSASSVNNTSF
Chain of Sphingosine 1-phosphate receptor 4 (O95977 whole entry): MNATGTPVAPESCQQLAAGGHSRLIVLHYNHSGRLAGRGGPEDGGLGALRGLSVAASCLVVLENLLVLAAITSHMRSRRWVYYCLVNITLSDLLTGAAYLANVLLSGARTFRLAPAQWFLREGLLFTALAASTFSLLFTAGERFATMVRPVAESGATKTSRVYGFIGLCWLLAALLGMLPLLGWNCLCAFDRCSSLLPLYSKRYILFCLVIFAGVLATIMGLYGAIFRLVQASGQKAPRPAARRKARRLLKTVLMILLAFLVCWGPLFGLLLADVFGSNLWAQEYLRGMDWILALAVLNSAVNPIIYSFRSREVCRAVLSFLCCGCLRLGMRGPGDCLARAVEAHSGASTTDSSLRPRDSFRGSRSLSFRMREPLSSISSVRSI
Chain of Tyrosine-protein phosphatase non-receptor type 12 (Q05209 whole entry): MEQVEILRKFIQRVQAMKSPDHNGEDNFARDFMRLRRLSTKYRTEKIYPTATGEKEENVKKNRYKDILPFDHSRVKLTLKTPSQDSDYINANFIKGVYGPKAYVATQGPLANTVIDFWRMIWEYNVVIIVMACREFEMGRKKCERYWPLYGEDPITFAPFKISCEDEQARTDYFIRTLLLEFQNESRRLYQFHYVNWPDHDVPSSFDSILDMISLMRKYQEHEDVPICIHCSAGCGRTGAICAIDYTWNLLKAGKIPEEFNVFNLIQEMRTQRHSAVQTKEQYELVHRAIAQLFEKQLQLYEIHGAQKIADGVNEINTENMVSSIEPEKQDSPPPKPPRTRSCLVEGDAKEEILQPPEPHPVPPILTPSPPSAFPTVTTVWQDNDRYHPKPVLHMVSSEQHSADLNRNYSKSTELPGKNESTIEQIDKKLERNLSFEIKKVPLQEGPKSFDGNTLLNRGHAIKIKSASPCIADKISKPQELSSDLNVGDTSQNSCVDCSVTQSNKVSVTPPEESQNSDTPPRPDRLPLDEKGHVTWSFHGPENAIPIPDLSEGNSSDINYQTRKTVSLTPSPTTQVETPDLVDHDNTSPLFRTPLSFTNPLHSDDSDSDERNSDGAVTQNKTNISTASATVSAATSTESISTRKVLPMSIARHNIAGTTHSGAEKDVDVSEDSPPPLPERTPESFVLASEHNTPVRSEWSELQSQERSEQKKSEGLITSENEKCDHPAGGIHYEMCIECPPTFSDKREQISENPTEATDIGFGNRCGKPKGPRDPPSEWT
Chain of Protein Rev (P04618 whole entry): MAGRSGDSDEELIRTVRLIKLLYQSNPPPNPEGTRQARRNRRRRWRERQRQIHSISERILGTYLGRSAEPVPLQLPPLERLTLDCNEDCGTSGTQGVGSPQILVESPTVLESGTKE

Structure (SMILES): c1cc2c3c(cccc3c1)C(N1CCOCC1)=N2
- IC50 [1]: 29.2 µM (not active)
- IC50 [2]: 8.44 µM (active)

Structure (SMILES): Fc1ccc(OCCn2cc(C(=S)N3CCCCC3)c3ccccc32)cc1
- IC50 [3]: > 100 µM (inactive)
- IC50 [4]: > 99 µM (inactive)
- IC50 [5]: 47.2 µM (active)
- IC50 [6]: > 99 µM (inactive)

Structure (SMILES): CCc1ccc(S(=O)(=O)NCc2ccc(C(=O)NCCN(Cc3ccc(Br)cc3)C(C)C)cc2)cc1
- IC50 [7]: > 32 µM (inactive)
- IC50 [8]: > 32 µM (inactive)
- IC50 [9]: 0.82 µM (active)
- IC50 [10]: 0.523 µM (active)

Structure (SMILES): Cc1ccc(OCCCOc2ccc(C)nc2[N+](=O)[O-])c([N+](=O)[O-])n1
- EC50 [11]: > 50 µM (inactive)

Structure (SMILES): COC(=O)c1ccc(COc2ccc3cc(-c4ccc(F)cc4)c(=O)oc3c2)cc1
- IC50 [12]: > 100 µM (inactive)
- IC50 [13]: > 100 µM (inactive)
- IC50 [14]: > 100 µM (inactive)
- IC50 [15]: 40 µM (active)
- IC50 [16]: > 100 µM (inactive)
- IC50 [17]: > 100 µM (inactive)
- IC50 [18]: > 100 µM (inactive)
- IC50 [19]: > 100 µM (inactive)
